In the test the target is T1, vitamin D receptors (Mus musculus, UniProt P48281).
T1 construct: the skin treated is removed and the epidermis is separated from the dermis; from tissue; host or cells: epidermis of SKH mice (in vivo, topical application)
T1 sequence (P48281 1-422): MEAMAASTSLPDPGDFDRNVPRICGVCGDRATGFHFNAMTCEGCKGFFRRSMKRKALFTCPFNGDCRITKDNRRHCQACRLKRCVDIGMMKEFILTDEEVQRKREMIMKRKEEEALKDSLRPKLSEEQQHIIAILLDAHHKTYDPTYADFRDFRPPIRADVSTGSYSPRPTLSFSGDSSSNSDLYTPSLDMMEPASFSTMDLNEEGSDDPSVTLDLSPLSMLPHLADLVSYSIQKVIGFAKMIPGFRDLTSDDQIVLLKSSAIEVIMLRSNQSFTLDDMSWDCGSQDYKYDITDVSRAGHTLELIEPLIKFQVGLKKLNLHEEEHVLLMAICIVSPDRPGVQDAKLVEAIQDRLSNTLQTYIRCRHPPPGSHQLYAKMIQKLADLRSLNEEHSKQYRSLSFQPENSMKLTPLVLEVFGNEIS
Briefly: Induction of 24-Hydroxylase mRNA in the epidermis of SKH mice after a single topical application (semiquantitative PCR). In kind it is in vivo. As to conditions: for Expression of the mRNA for 24-Hydroxylase: Induction factor versus ethanol: single topical application of 50 μl to the back, epidermis 8 hours after application, normalized to GAPDH mRNA. The method, then: The test protocol used is the following:
SKH mice receive a single topical application of a compound according to the invention in solution in ethanol in increasing concentrations. A volume of 50 μl of the product to be tested or of the vehicle alone is applied to the back of the mice with the aid of a pipette.
A volume of 50 μl of the product to be tested or of the vehicle alone is applied to the back of the mice with the aid of a pipette.
8 hours after the topical application, the mice are humanely killed, the skin treated is removed and the epidermis is separated from the dermis. The quantification of the mRNA for 24-Hydroxylase is carried out by semiquantitative PCR.

The mark [1] stands for this setting: concentration 1 % (weight/volume) in ethanol.
Setting [2] is: concentration 0.1 % (weight/volume) in ethanol.

With `CC(=CC=CC(C)(C)O)c1cccc(OCc2ccc(CO)c(CO)c2)c1` [Example 4, 6-[3-(3,4-bis-Hydroxymethylbenzyloxy)phenyl]-2-methylhepta-3,5-dien-2-ol], the “Activity (induction of 24-Hydroxylase mRNA) compared with 1,25-(OH)2-vitamin D3” value (at the concentration of 1%, single topical application, SKH mice) is reported as “comparable to that of 1,25-(OH)2-vitamin D3 at 0.001%”. Further, the “Expression of the mRNA for 24-Hydroxylase: Induction factor versus ethanol” value (“Expression … Induction factor versus ethanol” below) under setting [1] is 11.
For `CCC(O)(/C=C/C=C(\C)c1cccc(CCc2ccc(CO)c(CO)c2)c1)CC` [Example 59, (4E,6E)-7-{3-[2-(3,4-bis-Hydroxymethylphenyl)ethyl]-phenyl}-3-ethylocta-4,6-dien-3-ol], the “Expression … Induction factor versus ethanol” value under setting [2] is 20.5.
As for `CCC(O)(/C=C/C=C(\C)c1cccc(C=Cc2ccc(CO)c(CO)c2)c1)CC` [Example 61, (4E-6E)-7-{3-[2-(3,4-bis-Hydroxymethylphenyl}vinyl]-phenyl)-3-ethylocta-4,6-dien-3-ol], the “Expression … Induction factor versus ethanol” value under setting [1] worked out at 10.
On the same count and under the same terms, in the case of `CCC(O)(/C=C/C=C(\C)c1cccc(OCc2ccc(CO)c(CO)c2)c1)CC` [Example 65, (4E,6E)-7-[3-(3,4-bis-Hydroxymethylbenzyloxy)phenyl]-3-ethylocta-4,6-dien-3-ol] it was 15.
With `CC/C(=C\C=C\C(O)(CC)CC)c1cccc(OCc2ccc(CO)c(CO)c2)c1` [Example 68, (4E,6E)-7-[3-(3,4-bis-Hydroxymethylbenzyloxy)phenyl]-3-ethylnona-4,6-dien-3-ol], the “Expression … Induction factor versus ethanol” value under setting [2] amounted to 25.
As for `CCC(O)(CC)CC/C=C(\C)c1cccc(OCc2ccc(CO)c(CO)c2)c1` [Example 72, (E)-7-[3-(3,4-bis-Hydroxymethylbenzyloxy)phenyl]-3-ethyloct-6-en-3-ol], under setting [2], the “Expression … Induction factor versus ethanol” value stood at 17.
Same read-out and setting: in the case of `CCC(O)(/C=C/C=C(\C)c1cccc(COc2ccc(CO)c(CO)c2)c1)CC` [Example 82, (4E,6E)-7-[3-(3,4-bis-Hydroxymethylphenoxy-methyl)phenyl]-3-ethylocta-4,6-dien-3-ol] it was 21.
